Measured values reported in PubChem BioAssay AID2060601 (Molecular Pharmacology Branch, DTP, NCI, 2025).
pIC50: −log10 of the molar value. Values joined by “and” are separate entries in the source; they are usually repeats but may differ in a detail not shown here. Identical values can stand only once.

System: 874868-142-R-J2-PDC complex spheroids, growth % test/control
Test: Anticancer human tumor 874868-142-R-J2-PDC patient-derived head and neck squamous carcinoma cell line growth inhibition [CLK]
Conditions: for viability, T/C: stronger effect = lower value
Method in brief: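 Patient-derived tumor cells grown as complex spheroids with HUVEC endothelial cells and mesenchymal stem cells, treated with drug combinations. Concentrations descend in half-log steps from near clinical Cmax, or from 10 microM if Cmax unknown.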

[1] = curve of first compound, second compound 0.0316 µM
[2] = curve of first compound, second compound 0.1 µM
[3] = curve of first compound, second compound 0.316 µM
[4] = curve of first compound, second compound 1 µM
[5] = curve of first compound, second compound 3.16 µM
[6] = curve of first compound, second compound 10 µM
[7] = second compound 0.0316 µM, first compound 0.0316 µM
[8] = second compound 0.0316 µM, first compound 0.1 µM
[9] = second compound 0.1 µM, first compound 0.0316 µM
[10] = second compound 0.1 µM, first compound 0.1 µM
[11] = second compound 0.316 µM, first compound 0.0316 µM
[12] = second compound 0.316 µM, first compound 0.1 µM
[13] = second compound 1 µM, first compound 0.0316 µM
[14] = second compound 1 µM, first compound 0.1 µM
[15] = second compound 3.16 µM, first compound 0.0316 µM
[16] = second compound 3.16 µM, first compound 0.1 µM
[17] = second compound 10 µM, first compound 0.0316 µM
[18] = second compound 10 µM, first compound 0.1 µM
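Further: spheroids exposed to the compounds for 7 days.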
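Wherever viability, T/C is given: 100% = DMSO vehicle control viability.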

Cn1ncnc1[C@H]1c2n[nH]c(=O)c3cc(F)cc(c23)N[C@@H]1c1ccc(F)cc1 + CNC(=O)c1ccc(Nc2nc(OC3CCCC3)c3c(-c4ccc5nc(C)oc5c4)c[nH]c3n2)c(OC)c1
pIC50 [1]: < 7.00
pIC50 [2]: < 7.00
pIC50 [3]: < 7.00
pIC50 [4]: > 9.50
pIC50 [5]: > 9.50
pIC50 [6]: > 9.50
viability, T/C (second compound 0.0316 µM, first compound 0.000316 µM): 97.6%
viability, T/C (second compound 0.0316 µM, first compound 0.001 µM): 92.7%
viability, T/C (second compound 0.0316 µM, first compound 0.00316 µM): 102%
viability, T/C (second compound 0.0316 µM, first compound 0.01 µM): 94.6%
viability, T/C [7]: 85.1%
viability, T/C [8]: 73.7%
viability, T/C (second compound 0.1 µM, first compound 0.000316 µM): 85%
viability, T/C (second compound 0.1 µM, first compound 0.001 µM): 68.8%
viability, T/C (second compound 0.1 µM, first compound 0.00316 µM): 90.1%
viability, T/C (second compound 0.1 µM, first compound 0.01 µM): 79.2%
viability, T/C [9]: 73.5%
viability, T/C [10]: 66.6%
viability, T/C (second compound 0.316 µM, first compound 0.000316 µM): 61.4%
viability, T/C (second compound 0.316 µM, first compound 0.001 µM): 54.3%
viability, T/C (second compound 0.316 µM, first compound 0.00316 µM): 51.5%
viability, T/C (second compound 0.316 µM, first compound 0.01 µM): 56.3%
viability, T/C [11]: 59.7%
viability, T/C [12]: 46.3%
viability, T/C (second compound 1 µM, first compound 0.000316 µM): 42.7%
viability, T/C (second compound 1 µM, first compound 0.001 µM): 50.8%
viability, T/C (second compound 1 µM, first compound 0.00316 µM): 40.6%
viability, T/C (second compound 1 µM, first compound 0.01 µM): 36.9%
viability, T/C [13]: 40.8%
viability, T/C [14]: 40.7%
viability, T/C (second compound 3.16 µM, first compound 0.000316 µM): 44.5%
viability, T/C (second compound 3.16 µM, first compound 0.001 µM): 36.2%
viability, T/C (second compound 3.16 µM, first compound 0.00316 µM): 39.2%
viability, T/C (second compound 3.16 µM, first compound 0.01 µM): 39%
viability, T/C [15]: 44%
viability, T/C [16]: 34%
viability, T/C (second compound 10 µM, first compound 0.000316 µM): 44%
viability, T/C (second compound 10 µM, first compound 0.001 µM): 40.5%
viability, T/C (second compound 10 µM, first compound 0.00316 µM): 39.4%
viability, T/C (second compound 10 µM, first compound 0.01 µM): 39.5%
viability, T/C [17]: 47.6%
viability, T/C [18]: 31%

O=c1[nH]cc(F)c(=O)[nH]1 + CN1CCN(c2cc(C(=O)Nc3cc4cc(-c5cnn(C)c5)ccc4cn3)ccn2)CC1
pIC50 [1]: 5.63
pIC50 [2]: 6.18
pIC50 [3]: > 7.50
pIC50 [4]: > 7.50
pIC50 [5]: > 7.50
pIC50 [6]: > 7.50
viability, T/C [7]: 99.7%
viability, T/C [8]: 74.5%
viability, T/C (second compound 0.0316 µM, first compound 0.316 µM): 83.8%
viability, T/C (second compound 0.0316 µM, first compound 1 µM): 70.8%
viability, T/C (second compound 0.0316 µM, first compound 3.16 µM): 41.6%
viability, T/C (second compound 0.0316 µM, first compound 10 µM): 37%
viability, T/C [9]: 66.7%
viability, T/C [10]: 79%
viability, T/C (second compound 0.1 µM, first compound 0.316 µM): 62.4%
viability, T/C (second compound 0.1 µM, first compound 1 µM): 43.7%
viability, T/C (second compound 0.1 µM, first compound 3.16 µM): 24.8%
viability, T/C (second compound 0.1 µM, first compound 10 µM): 31%
viability, T/C [11]: 18.2%
viability, T/C [12]: 17.2%
viability, T/C (second compound 0.316 µM, first compound 0.316 µM): 12.4%
viability, T/C (second compound 0.316 µM, first compound 1 µM): 10.2%
viability, T/C (second compound 0.316 µM, first compound 3.16 µM): 12.2%
viability, T/C (second compound 0.316 µM, first compound 10 µM): 10.7%
viability, T/C [13]: 0.31%
viability, T/C [14]: 0.25%
viability, T/C (second compound 1 µM, first compound 0.316 µM): 0.25%
viability, T/C (second compound 1 µM, first compound 1 µM): 0.29%
viability, T/C (second compound 1 µM, first compound 3.16 µM): 0.14%
viability, T/C (second compound 1 µM, first compound 10 µM): 0.21%
viability, T/C [15]: 0.18%
viability, T/C [16]: 0.21%
viability, T/C (second compound 3.16 µM, first compound 0.316 µM): 0.22%
viability, T/C (second compound 3.16 µM, first compound 1 µM): 0.18%
viability, T/C (second compound 3.16 µM, first compound 3.16 µM): 0.5%
viability, T/C (second compound 3.16 µM, first compound 10 µM): 0.21%
viability, T/C [17]: 0.08%
viability, T/C [18]: 0.14%
viability, T/C (second compound 10 µM, first compound 0.316 µM): 0.14%
viability, T/C (second compound 10 µM, first compound 1 µM): 0.15%
viability, T/C (second compound 10 µM, first compound 3.16 µM): 0.29%
viability, T/C (second compound 10 µM, first compound 10 µM): 0.17%

CC(=O)O[C@H]1C(=O)[C@@]2(C)[C@H]([C@H](OC(=O)c3ccccc3)[C@]3(O)C[C@H](OC(=O)[C@H](O)[C@@H](NC(=O)c4ccccc4)c4ccccc4)C(C)=C1C3(C)C)[C@]1(OC(C)=O)CO[C@@H]1C[C@@H]2O
viability, T/C (compound 0.0316 µM): 24.8% and 41.2%
viability, T/C (compound 0.1 µM): 22.5% and 38.5%
viability, T/C (compound 0.316 µM): 21.1% and 41.4%
viability, T/C (compound 1 µM): 28.7% and 47.2%
viability, T/C (compound 3.16 µM): 23.2% and 42.7%
viability, T/C (compound 10 µM): 36.4% and 50.2%
pIC50 (curve of compound): > 7.50
